Source: ChEMBL document CHEMBL3352542, “Synthesis, biological evaluation and molecular modeling study of 2-(1,3,4-thiadiazolyl-thio and 4-methyl-thiazolyl-thio)-quinazolin-4-ones as a new class of DHFR inhibitors” (Bioorg Med Chem Lett, 2014)

Assays:
Dihydrofolate reductase = target: T1, Dihydrofolate reductase (Bos taurus, UniProt P00376); assay: Inhibition of bovine liver DHFR
T1 sequence (P00376 whole entry): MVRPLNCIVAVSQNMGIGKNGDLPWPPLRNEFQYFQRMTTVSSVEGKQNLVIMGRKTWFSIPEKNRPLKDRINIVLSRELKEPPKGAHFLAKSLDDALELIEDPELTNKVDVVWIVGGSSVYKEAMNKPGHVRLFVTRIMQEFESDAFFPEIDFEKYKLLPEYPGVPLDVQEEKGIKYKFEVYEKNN

Staphylococcus aureus = assay: Antimicrobial activity against Staphylococcus aureus assessed as inhibition zone at 200 ug/disk after 24 hrs by disc-diffusion method; format: functional; details: read-out: IZ
Bacillus subtilis = assay: Antimicrobial activity against Bacillus subtilis assessed as inhibition zone at 200 ug/disk after 24 hrs by disc-diffusion method; format: functional; details: read-out: IZ
Escherichia coli = assay: Antimicrobial activity against Escherichia coli assessed as inhibition zone at 200 ug/disk after 24 hrs by disc-diffusion method; format: functional; details: read-out: IZ
Pseudomonas aeruginosa = assay: Antimicrobial activity against Pseudomonas aeruginosa assessed as inhibition zone at 200 ug/disk after 24 hrs by disc-diffusion method; format: functional; details: read-out: IZ
Candida albicans = assay: Antimicrobial activity against Candida albicans assessed as inhibition zone at 200 ug/disk after 24 hrs by disc-diffusion method; format: functional; details: read-out: IZ
CCRF-CEM = assay: Growth inhibition of human CCRF-CEM cells at 10 uM after 48 hrs; format: functional; details: read-out: GI
HL-60(TB) = assay: Growth inhibition of human HL-60(TB) cells at 10 uM after 48 hrs; format: functional; details: HL-60, 48 h, read-out: GI
K562 = assay: Growth inhibition of human K562 cells at 10 uM after 48 hrs; format: functional; details: K562, 48 h, read-out: GI
[1] = Growth inhibition of human MOLT4 cells at 10 uM after 48 hrs; format: functional; details: MOLT-4, 48 h, read-out: GI
[2] = Growth inhibition of human RPMI8226 cells at 10 uM after 48 hrs; format: functional; details: RPMI-8226, 48 h, read-out: GI
A549 = assay: Growth inhibition of human A549 cells at 10 uM after 48 hrs; format: functional; details: A549, 48 h, read-out: GI
[3] = Growth inhibition of human HOP92 cells at 10 uM after 48 hrs; format: functional; details: HOP-92, 48 h, read-out: GI
NCI-H226 = assay: Growth inhibition of human NCI-H226 cells at 10 uM after 48 hrs; format: functional; details: NCI-H226, 48 h, read-out: GI
NCI-H522 = assay: Growth inhibition of human NCI-H522 cells at 10 uM after 48 hrs; format: functional; details: NCI-H522, 48 h, read-out: GI
[4] = Growth inhibition of human COLO205 cells at 10 uM after 48 hrs; format: functional; details: COLO 205, 48 h, read-out: GI
[5] = Growth inhibition of human HCC2998 cells at 10 uM after 48 hrs; format: functional; details: HCC 2998, 48 h, read-out: GI
[6] = Growth inhibition of human HCT116 cells at 10 uM after 48 hrs; format: functional; details: HCT-116, 48 h, read-out: GI
[7] = Growth inhibition of human HCT15 cells at 10 uM after 48 hrs; format: functional; details: HCT-15, 48 h, read-out: GI
HT-29 = assay: Growth inhibition of human HT-29 cells at 10 uM after 48 hrs; format: functional; details: HT-29, 48 h, read-out: GI
SW-620 = assay: Growth inhibition of human SW620 cells at 10 uM after 48 hrs; format: functional; details: SW-620, 48 h, read-out: GI
[8] = Growth inhibition of human SF295 cells at 10 uM after 48 hrs; format: functional; details: SF-295, 48 h, read-out: GI
[9] = Growth inhibition of human SF539 cells at 10 uM after 48 hrs; format: functional; details: SF-539, 48 h, read-out: GI
SNB-75 = assay: Growth inhibition of human SNB75 cells at 10 uM after 48 hrs; format: functional; details: SNB-75, 48 h, read-out: GI
U-251 = assay: Growth inhibition of human U251 cells at 10 uM after 48 hrs; format: functional; details: U-251, 48 h, read-out: GI
[10] = Growth inhibition of human LOXIMVI cells at 10 uM after 48 hrs; format: functional; details: LOX IMVI, read-out: GI
M14 = assay: Growth inhibition of human M14 cells at 10 uM after 48 hrs; format: functional; details: M14, 48 h, read-out: GI
SK-MEL-5 = assay: Growth inhibition of human SK-MEL-5 cells at 10 uM after 48 hrs; format: functional; details: SK-MEL-5, 48 h, read-out: GI
[11] = Growth inhibition of human UACC257 cells at 10 uM after 48 hrs; format: functional; details: UACC-257, 48 h, read-out: GI
[12] = Growth inhibition of human UACC62 cells at 10 uM after 48 hrs; format: functional; details: UACC-62, 48 h, read-out: GI
[13] = Growth inhibition of human OVCAR4 cells at 10 uM after 48 hrs; format: functional; details: OVCAR-4, 48 h, read-out: GI
[14] = Growth inhibition of human OVCAR8 cells at 10 uM after 48 hrs; format: functional; details: OVCAR-8, 48 h, read-out: GI
[15] = Growth inhibition of human NCI-ADR-RES cells at 10 uM after 48 hrs; format: functional; details: read-out: GI
786-0 = assay: Growth inhibition of human 786-0 cells at 10 uM after 48 hrs; format: functional; details: 786-0, 48 h, read-out: GI
A498 = assay: Growth inhibition of human A498 cells at 10 uM after 48 hrs; format: functional; details: A498, 48 h, read-out: GI
ACHN = assay: Growth inhibition of human ACHN cells at 10 uM after 48 hrs; format: functional; details: read-out: GI
[16] = Growth inhibition of human RXF393 cells at 10 uM after 48 hrs; format: functional; details: RXF 393, 48 h, read-out: GI
SN12C = assay: Growth inhibition of human SN12C cells at 10 uM after 48 hrs; format: functional; details: read-out: GI
[17] = Growth inhibition of human UO31 cells at 10 uM after 48 hrs; format: functional; details: UO-31, 48 h, read-out: GI
[18] = Growth inhibition of human PC3 cells at 10 uM after 48 hrs; format: functional; details: PC-3, 48 h, read-out: GI
MCF7 = assay: Growth inhibition of human MCF7 cells at 10 uM after 48 hrs; format: functional; details: MCF7, 48 h, read-out: GI
[19] = Growth inhibition of human Hs 578T cells at 10 uM after 48 hrs; format: functional; details: read-out: GI
[20] = Growth inhibition of human BT549 cells at 10 uM after 48 hrs; format: functional; details: BT-549, 48 h, read-out: GI
T47D = assay: Growth inhibition of human T47D cells at 10 uM after 48 hrs; format: functional; details: read-out: GI
MDA-MB-468 = assay: Growth inhibition of human MDA-MB-468 cells at 10 uM after 48 hrs; format: functional; details: MDA-MB-468, 48 h, read-out: GI

## COc1cc2nc(Sc3sc(N)nc3C)n(-c3ccc(Oc4ccccc4)cc3)c(=O)c2cc1OC
Dihydrofolate reductase
  IC50: 6 µM
Staphylococcus aureus
  zone of inhibition at 200 µg/disc: 8 mm
Bacillus subtilis
  zone of inhibition at 200 µg/disc: 8 mm
Escherichia coli
  zone of inhibition at 200 µg/disc: 8 mm
Pseudomonas aeruginosa
  zone of inhibition at 200 µg/disc: 8 mm
Candida albicans
  zone of inhibition at 200 µg/disc: 8 mm
CCRF-CEM
  inhibition of growth at 10 µM: 35.5%
HL-60(TB)
  inhibition of growth at 10 µM: 21.2%
K562
  inhibition of growth at 10 µM: 21.5%
[1]
  inhibition of growth at 10 µM: 46.1%
[2]
  inhibition of growth at 10 µM: 32.4%
A549
  inhibition of growth at 10 µM: 16.7%
[3]
  inhibition of growth at 10 µM: 20.5%
NCI-H226
  inhibition of growth at 10 µM: 10.3%
NCI-H522
  inhibition of growth at 10 µM: 16.3%
[4]
  inhibition of growth at 10 µM: 24.1%
[5]
  inhibition of growth at 10 µM: 19.6%
[6]
  inhibition of growth at 10 µM: 52.7%
[7]
  inhibition of growth at 10 µM: 20.1%
HT-29
  inhibition of growth at 10 µM: 25%
SW-620
  inhibition of growth at 10 µM: 18.8%
[8]
  inhibition of growth at 10 µM: 14.6%
[9]
  inhibition of growth at 10 µM: 18.7%
SNB-75
  inhibition of growth at 10 µM: 13.3%
U-251
  inhibition of growth at 10 µM: 12.4%
[10]
  inhibition of growth at 10 µM: 21.7%
M14
  inhibition of growth at 10 µM: 18.5%
SK-MEL-5
  inhibition of growth at 10 µM: 23.2%
[11]
  inhibition of growth at 10 µM: 10.3%
[12]
  inhibition of growth at 10 µM: 18.6%
[13]
  inhibition of growth at 10 µM: 49.3%
[14]
  inhibition of growth at 10 µM: 15%
[15]
  inhibition of growth at 10 µM: 24.8%
786-0
  inhibition of growth at 10 µM: 20%
A498
  inhibition of growth at 10 µM: 18%
ACHN
  inhibition of growth at 10 µM: 18.5%
[16]
  inhibition of growth at 10 µM: 14.1%
SN12C
  inhibition of growth at 10 µM: 20.3%
[17]
  inhibition of growth at 10 µM: 23.9%
[18]
  inhibition of growth at 10 µM: 34.9%
MCF7
  inhibition of growth at 10 µM: 25.7%
[19]
  inhibition of growth at 10 µM: 11.6%
[20]
  inhibition of growth at 10 µM: 28.7%
T47D
  inhibition of growth at 10 µM: 22.7%
MDA-MB-468
  inhibition of growth at 10 µM: 19.9%
